In brackets after ≈: the same amount, converted by molar mass.

The assay has as its system self-luminescent tuberculosis. The assay can be described thus: microbe, parasite or virus in culture. It is filed as cell-based. The note with it: Mycobacterium tuberculosis, 72 h; read-out: MIClux.
Take `CCc1nn2ccc(Cl)cc2c1C(=O)NCc1ccc(C(=O)OC)cc1` [TJ064814, 4-((5-chloro-2-ethylpyrazolo [1,5-a]pyridine-3-carboxamide)methyl) methyl benzoate]: the MIC fell in the range of 1 to 10 µg/mL (≈ 2.69 to 26.9 µM).

On to `CCc1nn2ccc(Cl)cc2c1C(=O)Nc1ccc(N2CCC(c3ccc(OC(F)(F)F)cc3)CC2)cc1` [TJ064819, 5-chloro-2-ethyl-N-(4-(4-(4-(trifluoromethoxy)phenyl)piperidine-1-yl)phenyl) pyrazolo [1,5-a] pyridine-3-carboxamide], for which the MIC is more than 10 µg/mL.

For the molecule `Cc1nn2c(C)cccc2c1C(=O)NCc1ccc(N2CCC(c3ccc(OC(F)(F)F)cc3)CC2)cc1` [TJ064851, 2,7-dimethyl-N-(4-(4-(4-(trifluoromethoxy)phenyl)piperidine-1-yl)benzyl) pyrazolo[1,5-a] pyridine-3-carboxamide], the MIC was in the range of 1 to 10 µg/mL (≈ 1.91 to 19.1 µM).

Regarding `Cc1ccc2c(C(=O)NCc3ccc(N4CCC(c5ccc(OC(F)(F)F)cc5)CC4)cc3)c(C)nn2c1` [TJ064854, 2,6-dimethyl-N-(4-(4-(4-(trifluoromethoxy)phenyl)piperidine-1-yl)benzyl) pyrazolo[1,5-a] pyridine-3-carboxamide], the MIC was less than 1 µg/mL.

Consider `Cc1nn2cccc(C)c2c1C(=O)NCc1ccc(N2CCC(c3ccc(OC(F)(F)F)cc3)CC2)cc1` [TJ064872, 2,4-dimethyl-N-(4-(4-(4-(trifluoromethoxy)phenyl)piperidine-1-yl)benzyl) pyrazolo[1,5-a] pyridine-3-carboxamide], for which the MIC was more than 10 µg/mL.

Consider `CCc1nn2ccc(OC)cc2c1C(=O)NCc1ccc(N2CCC(c3ccc(OC(F)(F)F)cc3)CC2)cc1` [TJ064889, 5-methoxy-2-ethyl-N-(4-(4-(4-(trifluoromethoxy)phenyl)piperidine-1-substituted)benzyl) pyrazolo[1,5-a] pyridine-3-carboxamide], for which the MIC is less than 1 µg/mL.

`CCc1nn2ccc(Cl)cc2c1C(=O)NCc1cn(-c2ccc(OC(F)(F)F)cc2)nn1` [TJ064983]: the MIC was more than 10 µg/mL.

In the case of `CCc1nn2ccc(Cl)cc2c1C(=O)N(C)Cc1ccc(N2CCC(c3ccc(OC(F)(F)F)cc3)CC2)cc1` [TJ064985], the MIC lay within 1 to 10 µg/mL (≈ 1.75 to 17.5 µM).

With `CCc1nn2ccc(Cl)cc2c1C(=O)NC(C)(C)c1ccc(N2CCC(c3ccc(OC(F)(F)F)cc3)CC2)cc1` [TJ064987, 5-chloro-2-ethyl-N-(2-(4-(4-(4-(trifluoromethoxy)phenyl)piperidine-1-yl)phenyl)propane-2-substituted) pyrazolo [1,5-a] pyridine-3-carboxamide], the MIC was more than 10 µg/mL.

Consider `Cc1nn2ccc(C(F)(F)F)cc2c1C(=O)NCc1ccc(N2CCC(c3ccc(OC(F)(F)F)cc3)CC2)cc1` [TJ064995, 5-trifluoromethyl-2-methyl-N-(4-(4-(4-(trifluoromethoxy)phenyl)piperidine-1-yl)benzyl) pyrazolo [1,5-a] pyridine-3-carboxamide], for which the MIC lay in the range of 1 to 10 µg/mL (≈ 1.73 to 17.3 µM).

In the case of `O=C(NCc1ccc(N2CCC(c3ccc(OC(F)(F)F)cc3)CC2)cc1)c1cnn2ccc(Cl)cc12` [TJ170371, 5-chloro-N-(4-(4-(4-(trifluoromethoxy)phenyl)piperidine-1-yl)benzyl) pyrazolo [1,5-a] pyridine-3-carboxamide], the MIC was in the range of 1 to 10 µg/mL (≈ 1.89 to 18.9 µM).

On to `O=C(NCc1ccc(N2CCC(c3ccc(OC(F)(F)F)cc3)CC2)cc1)c1c(-c2ccccc2)nn2ccc(Cl)cc12` [TJ170386, 5-chloro-2-phenyl-N-(4-(4-(4-(trifluoromethoxy)phenyl)piperidine-1-yl)benzyl) pyrazolo [1,5-a] pyridine-3-carboxamide], for which the MIC was more than 10 µg/mL.

On to `Cc1ccn2nc(C)c(C(=O)NCc3cn(-c4ccc(OC(F)(F)F)cc4)nn3)c2c1` [TJ830003], for which the MIC is more than 10 µg/mL.

In the case of `Cc1nn2ccc(Br)cc2c1C(=O)NCc1ccc(N2CCC(c3ccc(OC(F)(F)F)cc3)CC2)cc1` [TJ830008, 5-bromo-2-methyl-N-(4-(4-(4-(trifluoromethoxy)phenyl)piperidine-1-yl)benzyl) pyrazolo [1,5-a] pyridine-3-carboxamide], the MIC was less than 1 µg/mL.

Take `Cc1nn2ccc(-c3ccccc3)cc2c1C(=O)NCc1ccc(N2CCC(c3ccc(OC(F)(F)F)cc3)CC2)cc1` [TJ830012, 5-phenyl-2-methyl-N-(4-(4-(4-(trifluoromethoxy)phenyl)piperidine-1-yl)benzyl) pyrazolo [1,5-a] pyridine-3-carboxamide]: the MIC is more than 10 µg/mL.

As for `Cc1ccn2nc(C)c(C(=O)NCc3ccc(-c4ccc(OC(F)(F)F)cc4)nc3)c2c1` [TJ830025, 2,5-dimethyl-N-((6-(4-(trifluoromethoxy)phenyl)pyridine-3-yl)methyl) pyrazolo [1,5-a] pyridine-3-carboxamide], the MIC is less than 1 µg/mL.

Take `CCc1nn2ccc(Cl)cc2c1C(=O)NCc1ccc(-c2ccc(OC(F)(F)F)cc2)nc1` [TJ830028, 5-chloro-2-ethyl-N-((6-(4-(trifluoromethoxy)phenyl)pyridine-3-yl)methyl) pyrazolo [1,5-a] pyridine-3-carboxamide]: the MIC is less than 1 µg/mL.

In the case of `COc1ccn2nc(C)c(C(=O)NCc3ccc(N4CCC(c5ccc(OC(F)(F)F)cc5)CC4)cc3)c2c1` [TJ830047, 5-methoxy-2-methyl-N-(4-(4-(4-(trifluoromethoxy)phenyl)piperidine-1-yl)benzyl) pyrazolo [1,5-a] pyridine-3-carboxamide], the MIC is less than 1 µg/mL.

Consider `Cc1nn2ccccc2c1C(=O)NCc1ccc(C(F)(F)F)cc1` [TJ830069], for which the MIC was in the range of 1 to 10 µg/mL (≈ 3 to 30 µM).

In the case of `CCc1nn2ccc(Cl)cc2c1C(=O)NC(C)c1ccc(N2CCC(c3ccc(OC(F)(F)F)cc3)CC2)cc1` (stereo not drawn) [TJ830070, 5-chloro-2-ethyl-N-(1-(4-(4-(4-(trifluoromethoxy)phenyl)piperidine-1-yl)phenyl)ethanol) pyrazolo [1,5-a] pyridine-3-carboxamide], the MIC is more than 10 µg/mL.

Consider `Cc1ccn2nc(C)c(C(=O)NCc3ccc(C(F)(F)F)cc3)c2c1` [TJ830072], for which the MIC was less than 1 µg/mL.

As to `Cc1nn2ccc(C(C)C)cc2c1C(=O)NCc1ccc(N2CCC(c3ccc(OC(F)(F)F)cc3)CC2)cc1` [TJ830073, 5-isopropyl-2-methyl-N-(4-(4-(4-(trifluoromethoxy)phenyl)piperidine-1-yl)benzyl) pyrazolo [1,5-a] pyridine-3-carboxamide], the MIC is 1 to 10 µg/mL (≈ 1.82 to 18.2 µM).

In the case of `Cc1nn2ccc(C(C)(C)C)cc2c1C(=O)NCc1ccc(N2CCC(c3ccc(OC(F)(F)F)cc3)CC2)cc1` [TJ830075, 5-tert-Butyl-2-methyl-N-(4-(4-(4-(trifluoromethoxy)phenyl)piperidine-1-substituted)benzyl) pyrazolo [1,5-a] pyridine-3-carboxamide], the MIC is more than 10 µg/mL.

For `CCc1ccn2nc(C)c(C(=O)NCc3ccc(N4CCC(c5ccc(OC(F)(F)F)cc5)CC4)cc3)c2c1` [TJ830082, 5-ethyl-2-methyl-N-(4-(4-(4-(trifluoromethoxy)phenyl)piperidine-1-substituted)benzyl) pyrazolo [1,5-a] pyridine-3-carboxamide], the MIC was less than 1 µg/mL.

As to `CCc1nn2ccc(C)cc2c1C(=O)NCc1ccc(N2CCC(c3ccc(OC(F)(F)F)cc3)CC2)cc1` [TJ830102, 5-methyl-2-ethyl-N-(4-(4-(4-(trifluoromethoxy)phenyl)piperidine-1-substituted)benzyl) pyrazolo [1,5-a] pyridine-3-carboxamide], the MIC was less than 1 µg/mL.

For `CCOc1ccn2nc(C)c(C(=O)NCc3ccc(N4CCC(c5ccc(OC(F)(F)F)cc5)CC4)cc3)c2c1` [TJ830108, 5-methyl-2-ethoxy-N-(4-(4-(4-(trifluoromethoxy)phenyl)piperidine-1-substituted)benzyl) pyrazolo [1,5-a] pyridine-3-carboxamide], the MIC was less than 1 µg/mL.

Turning to `CCc1nn2ccc(Cl)cc2c1C(=O)NCCc1ccc(N2CCC(c3ccc(OC(F)(F)F)cc3)CC2)cc1` [TJ830128, 5-chloro-2-ethyl-N-(4-(4-(4-(trifluoromethoxy)phenyl)piperidine-1-yl)phenethyl) pyrazolo [1,5-a] pyridine-3-carboxamide], the MIC was 1 to 10 µg/mL (≈ 1.75 to 17.5 µM).

With `Cc1ccn2nc(C)c(C(=O)NCc3ccc(-c4ccc(OC(F)(F)F)cc4)s3)c2c1` [TJ830132, 2,5-dimethyl-N-((5-(4-(trifluoromethoxy)phenyl)thiophene-2-yl)methyl) pyrazolo [1,5-a] pyridine-3-carboxamide], the MIC is less than 1 µg/mL.

Consider `Cc1ccn2nc(C)c(C(=O)NCc3ccc(-c4ccc(OC(F)(F)F)cc4)cn3)c2c1` [TJ830133, 2,5-dimethyl-N-((5-(4-(trifluoromethoxy)phenyl)pyridine-2-yl)methyl) pyrazolo [1,5-a] pyridine-3-carboxamide], for which the MIC was less than 1 µg/mL.

As to `CCCc1nn2ccc(Cl)cc2c1C(=O)NCc1ccc(N2CCC(c3ccc(OC(F)(F)F)cc3)CC2)cc1` [TJ830134], the MIC was less than 1 µg/mL.

Regarding `Cc1ccn2nc(C)c(C(=O)NCc3ccc(C(C)(C)C)cc3)c2c1` [TJ830135, N-(4-(tert-butyl)benzyl)-2,5-dimethylpyrazolo [1,5-a] pyridine-3-carboxamide], the MIC was less than 1 µg/mL.

For `Cc1ccn2nc(C)c(C(=O)NCc3ccc(N(C)C)cc3)c2c1` [TJ830136, N-(4-(dimethylamino)benzyl)-2,5-dimethylpyrazolo [1,5-a] pyridine-3-carboxamide], the MIC was less than 1 µg/mL.

As to `COc1ccc(C2CCN(c3ccc(CNC(=O)c4c(C)nn5ccc(C)cc45)cc3)CC2)cc1` [TJ830140, N-(4-(4-(4-methoxyphenyl)piperidine-1-yl)benzyl)-2,5-dimethyl-pyrazolo [1,5-a] pyridine-3-carboxamide], the MIC is less than 1 µg/mL.

For `Cc1ccn2nc(C)c(C(=O)NCc3ccc(N4CCC(c5ccc(F)cc5)CC4)cc3)c2c1` [TJ830141, N-(4-(4-(4-fluorophenyl)piperidine-1-yl)benzyl)-2,5-dimethyl-pyrazolo [1,5-a] pyridine-3-carboxamide], the MIC was less than 1 µg/mL.

Regarding `Cc1ccn2nc(C)c(C(=O)NCc3ccc(N4CCCCC4)cc3)c2c1` [TJ830146, 2,5-dimethyl-N-(4-(piperidine-1-yl)benzyl) pyrazolo [1,5-a] pyridine-3-carboxamide], the MIC was less than 1 µg/mL.

As to `Cc1ccn2nc(C)c(C(=O)NCc3ccc(Oc4ccc(F)cc4)cc3)c2c1` [TJ830147, N-(4-(4-fluorophenoxy)benzyl)-2,5-dimethylpyrazolo [1,5-a] pyridine-3-carboxamide], the MIC is less than 1 µg/mL.
